From patent publication US20130317045A1, “THIENOPYRIDINE AND THIENOPYRIMIDINE COMPOUNDS AND METHODS OF USE THEREOF” (AMBIT BIOSCIENCES CORPORATION, priority 2010, published 2013) come the findings set out here.

Assay [1] concerns GM-CSFR/JAK2/STAT5 pathway in CSTF-1 cells. As to the kind of experiment: CSTF-1 cell-based reporter assay (beta-lactamase, GM-CSF stimulated). The arrangement: species or system human. Particulars: GM-CSF at 2 ng/mL, 4 hours, read-out: Cell Assay: CS TF-1 reporter assay IC50. As for the experimental part:
CSTF-1 Cell-Based Reporter Assay
CSTF-1 cells are derived from the human erythroleukemia cell line that is growth dependent on GM-CSF and has an intact GM-CSFR/JAK2/STAT5 pathway. The cell line contains stably integrated beta-lactamase reporter gene under the control of the […] (irf 1) response element recognized by the activated transcription factor STATS. csTF-1 cells (Invitrogen K1219) were washed with assay media (97% OPTIMEM/ 0.5% dialyzed FBS/0.1 mM NEAA/1 mM Na pyr/P/S) and seeded in the same media at 5×10^5 cell/mL in T150 flask. After 16 hour incubation, cells were seeded at 2×10^5 cell/well in 50 μl volume, into Costar, clear bottom, 96-well assay plates. Serial dilutions of compounds were added to the plates with final DMSO concentration at 0.5% and GM-CSF at 2 ng/mL and the plates were then incubated at […] and 5% CO2 for 4 hours. The plates were brought to room temperature before adding Substrate Mixture according to manufacturer's protocol (Invitrogen, Catalog #K1085). The assay plates containing the substrate mixture were incubated in the dark at room temperature for 2 hours. Blue and green fluorescence was measured with excitation at 409 nm and emission at 460 nm (for blue) and excitation at 409 nm and emission at 530 nm (for green) using Spectra Max Gemini EM.

Another assay has as its target T1, JAK2 (Homo sapiens, UniProt O60674).
T1 construct: made in house
The assay is described as follows: Competition binding assay, JAK2. The text has this: (§1) Competition Binding Assay to Determine Binding Constants (Kd) of the Compounds Against JAK Kinases
(§2) Competition binding assays used herein were developed, validated and performed as described in Fabian et al., Nature Biotechnology 2005, 23,329-336. Kinases were produced as fusions to T7 phage (See, Fabian et al. or WO04/015142) or alternatively, the kinases were expressed in HEK-293 cells and subsequently tagged with DNA for PCR detection (See, WO08/005310). For the binding assays, streptavidin-coated magnetic beads were treated with biotinylated affinity ligands for 30 min at rt to generate affinity resins. The liganded beads were blocked with excess biotin and washed with blocking buffer (SeaBlock (Pierce), 1% BSA, 0.05% Tween 20, 1 mM DTT) to remove unbound ligand and to reduce non-specific binding. Binding reactions were assembled by combining kinase, liganded affinity beads, and test compounds in 1× binding buffer (20% SeaBlock, 0.17×PBS, 0.05% Tween 20, 6 mM DTT). Test compounds were prepared as 100× stocks in DMSO and rapidly diluted into the aqueous environment. DMSO was added to control assays lacking a test compound. Primary screen interactions were performed in polypropylene 384-well plates in a final volume of 34 μL, while Kd determinations were performed in polystyrene 96-well plates in a final volume of 135 μL. The assay plates were incubated at room temperature with shaking for 1 hour, long enough for binding reactions to reach equilibrium, and the affinity beads were washed extensively with wash buffer (1× PBS, 0.05% Tween 20) to remove unbound protein. The beads were then resuspended in elution buffer (1× PBS, 0.05% Tween 20, 2 μM non-biotinylated affinity ligand) and incubated at room temperature with shaking for 30 min. The kinase concentration in the eluates was measured by quantitative PCR. Each kinase was tested individually against each compound. Kds were determined using eleven serial threefold dilutions. A selectivity score, which is a quantitative measure of selectivity of a compound against a panel of enzymes, may be calculated for a compound by dividing the number of enzymes for which a compound meets a set criteria, (for example, a binding constant of 100 nM or less), by the total number of enzymes tested.

For the next assay, the target named is T2, JAK3 (Homo sapiens, UniProt P52333).
T2 construct: made in house
T2 sequence (P52333 1-1124): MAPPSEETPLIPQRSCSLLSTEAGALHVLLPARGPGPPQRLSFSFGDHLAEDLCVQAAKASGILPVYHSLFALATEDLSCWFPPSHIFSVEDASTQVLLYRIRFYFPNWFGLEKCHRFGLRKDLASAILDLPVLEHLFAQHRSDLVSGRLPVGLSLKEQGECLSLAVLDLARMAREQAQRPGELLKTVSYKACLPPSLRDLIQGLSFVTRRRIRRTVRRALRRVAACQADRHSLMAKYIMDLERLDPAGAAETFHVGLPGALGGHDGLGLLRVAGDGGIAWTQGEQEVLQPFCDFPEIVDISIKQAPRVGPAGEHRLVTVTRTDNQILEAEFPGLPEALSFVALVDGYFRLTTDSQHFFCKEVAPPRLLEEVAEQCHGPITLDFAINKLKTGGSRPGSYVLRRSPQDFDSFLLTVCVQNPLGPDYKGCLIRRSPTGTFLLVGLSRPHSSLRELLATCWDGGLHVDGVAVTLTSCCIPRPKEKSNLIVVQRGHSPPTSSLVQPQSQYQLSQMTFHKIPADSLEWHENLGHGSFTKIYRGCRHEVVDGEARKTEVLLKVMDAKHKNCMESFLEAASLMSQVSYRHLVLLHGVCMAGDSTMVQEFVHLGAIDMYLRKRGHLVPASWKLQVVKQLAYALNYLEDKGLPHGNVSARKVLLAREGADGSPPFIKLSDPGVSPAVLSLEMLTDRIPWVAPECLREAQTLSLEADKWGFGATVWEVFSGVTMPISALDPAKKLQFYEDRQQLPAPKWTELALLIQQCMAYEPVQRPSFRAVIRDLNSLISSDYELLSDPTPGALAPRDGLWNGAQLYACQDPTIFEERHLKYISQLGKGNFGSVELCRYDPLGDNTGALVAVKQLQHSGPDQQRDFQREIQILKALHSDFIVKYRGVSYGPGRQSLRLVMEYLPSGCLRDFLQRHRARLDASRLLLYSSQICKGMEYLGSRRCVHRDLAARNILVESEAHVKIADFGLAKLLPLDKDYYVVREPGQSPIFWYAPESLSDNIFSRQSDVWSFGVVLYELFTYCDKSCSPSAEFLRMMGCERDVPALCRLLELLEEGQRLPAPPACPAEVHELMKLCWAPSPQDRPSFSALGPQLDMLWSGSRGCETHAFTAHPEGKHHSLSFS
As to the kind of experiment: Competition binding assay, JAK3.
Text: as §1, §2

The target in the next assay is T3, TYK2 (Homo sapiens, UniProt P29597).
T3 construct: made in house
The assay is described as follows: Competition binding assay, TYK2.
Text: as §1, §2

Assay [2] relates to distinct kinases tested excluding mutant variants, typically 359 or 386 kinases. The assay is described as follows: Kinase selectivity score from competition binding panel. The note with it: compound at 10 μM; fraction of kinases with inhibition of 90% or greater. As for the experimental part: as §2

pIC50, pKd: −log10 of the molar value. Like-named read-outs stand apart in the source and are kept apart here. Some results are limits rather than exact numbers.

T1 sequence (O60674 whole entry): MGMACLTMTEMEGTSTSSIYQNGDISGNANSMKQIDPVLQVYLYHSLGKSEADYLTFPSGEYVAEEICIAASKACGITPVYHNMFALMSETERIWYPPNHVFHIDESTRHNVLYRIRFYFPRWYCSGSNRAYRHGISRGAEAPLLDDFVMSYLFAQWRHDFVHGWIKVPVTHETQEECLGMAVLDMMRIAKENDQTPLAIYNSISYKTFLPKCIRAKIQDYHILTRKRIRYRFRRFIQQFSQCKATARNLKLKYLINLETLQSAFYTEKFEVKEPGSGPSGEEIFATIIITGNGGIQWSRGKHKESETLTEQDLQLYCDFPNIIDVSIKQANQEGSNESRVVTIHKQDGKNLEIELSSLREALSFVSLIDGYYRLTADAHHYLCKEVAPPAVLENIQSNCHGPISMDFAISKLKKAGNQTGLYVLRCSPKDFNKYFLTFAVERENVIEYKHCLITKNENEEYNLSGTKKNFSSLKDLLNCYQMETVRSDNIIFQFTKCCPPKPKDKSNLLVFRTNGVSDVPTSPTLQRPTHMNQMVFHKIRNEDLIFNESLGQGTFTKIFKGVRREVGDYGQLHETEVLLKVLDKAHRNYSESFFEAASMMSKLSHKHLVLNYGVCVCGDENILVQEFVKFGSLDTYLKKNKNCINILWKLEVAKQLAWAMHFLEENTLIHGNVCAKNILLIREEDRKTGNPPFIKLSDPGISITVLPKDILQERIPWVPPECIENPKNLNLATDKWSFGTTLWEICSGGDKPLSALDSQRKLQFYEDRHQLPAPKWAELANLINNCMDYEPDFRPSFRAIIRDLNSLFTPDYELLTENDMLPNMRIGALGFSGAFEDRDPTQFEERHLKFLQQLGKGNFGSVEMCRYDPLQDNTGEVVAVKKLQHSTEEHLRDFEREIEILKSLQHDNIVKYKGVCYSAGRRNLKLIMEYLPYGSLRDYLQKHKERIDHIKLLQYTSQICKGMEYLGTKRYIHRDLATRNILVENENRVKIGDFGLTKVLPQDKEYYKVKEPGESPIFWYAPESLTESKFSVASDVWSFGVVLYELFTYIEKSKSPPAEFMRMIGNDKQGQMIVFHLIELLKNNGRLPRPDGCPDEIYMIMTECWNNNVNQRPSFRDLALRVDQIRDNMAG
T3 sequence (P29597 whole entry): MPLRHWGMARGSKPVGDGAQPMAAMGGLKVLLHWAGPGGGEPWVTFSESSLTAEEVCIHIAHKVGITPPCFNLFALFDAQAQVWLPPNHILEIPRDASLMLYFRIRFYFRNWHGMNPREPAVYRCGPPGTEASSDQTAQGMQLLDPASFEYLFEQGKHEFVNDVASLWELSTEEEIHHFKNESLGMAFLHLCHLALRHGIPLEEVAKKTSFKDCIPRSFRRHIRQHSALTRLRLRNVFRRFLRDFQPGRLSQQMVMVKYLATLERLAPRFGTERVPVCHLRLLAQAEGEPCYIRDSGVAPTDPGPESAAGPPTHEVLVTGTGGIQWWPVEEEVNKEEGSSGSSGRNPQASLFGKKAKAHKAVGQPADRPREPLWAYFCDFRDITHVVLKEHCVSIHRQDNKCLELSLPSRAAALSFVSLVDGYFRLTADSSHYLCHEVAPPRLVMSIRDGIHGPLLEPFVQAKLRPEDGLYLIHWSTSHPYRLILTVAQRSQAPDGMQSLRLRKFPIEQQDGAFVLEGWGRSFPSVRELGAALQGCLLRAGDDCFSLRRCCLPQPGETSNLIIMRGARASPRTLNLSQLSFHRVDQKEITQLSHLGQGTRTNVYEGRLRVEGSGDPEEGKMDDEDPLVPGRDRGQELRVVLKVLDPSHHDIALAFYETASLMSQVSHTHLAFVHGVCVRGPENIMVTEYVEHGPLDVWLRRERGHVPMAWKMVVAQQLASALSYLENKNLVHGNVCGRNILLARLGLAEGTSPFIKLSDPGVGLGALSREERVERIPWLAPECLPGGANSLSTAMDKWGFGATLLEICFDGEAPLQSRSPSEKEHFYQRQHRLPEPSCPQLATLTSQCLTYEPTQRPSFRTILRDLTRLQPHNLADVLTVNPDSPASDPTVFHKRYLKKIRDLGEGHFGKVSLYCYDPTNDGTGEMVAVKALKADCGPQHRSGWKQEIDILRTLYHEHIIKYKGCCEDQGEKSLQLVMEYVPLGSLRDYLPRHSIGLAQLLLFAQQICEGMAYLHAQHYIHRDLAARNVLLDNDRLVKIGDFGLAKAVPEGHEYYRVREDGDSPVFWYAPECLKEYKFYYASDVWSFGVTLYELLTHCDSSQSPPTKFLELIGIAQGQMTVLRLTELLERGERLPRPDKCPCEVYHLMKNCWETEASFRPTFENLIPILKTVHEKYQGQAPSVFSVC

In general, pIC50 refers to the negative decadic logarithm of the IC50, by convention in mol/L. In general, pKd refers to the negative decadic logarithm of the Kd, by convention in mol/L. Consider `Cc1cc(Nc2nc(C(O)c3ccc(F)cc3)nc3c(C)csc23)n[nH]1` (stereo not shown) [Example 23, (4-fluorophenyl)(7-methyl-4-(5-methyl-1H-pyrazol-3-ylamino)thieno[3,2-d]pyrimidin-2-yl)methanol], for which, in assay [1] (Homo sapiens), the negative-log IC50 (pIC50) is 6.30 to 7.00. Moreover, the pKd at JAK2 was at least 9.00; at JAK3 it was 7.00 to 8.00; on TYK2, at least 8.00. Moreover, the “S-Score: S(10) at 10 μM” value in assay [2] is recorded as “A (A ≦ 0.3)”.

Consider `Cc1cc(Nc2nc(C(=O)c3ccc(F)cc3)nc3cc(C(C)(C)C)sc23)n[nH]1` [Example 26, (6-tert-butyl-4-(5-methyl-1H-pyrazol-3-ylamino)thieno[3,2-d]pyrimidin-2-yl)(4-fluorophenyl) methanone], for which the pIC50 in assay [1] (Homo sapiens) was 6.30 to 7.00. The pKd on JAK2 is 8.00 to 9.00; at JAK3, below 7.00; on TYK2, below 7.00. Besides, in assay [2], the “S-Score: S(10) at 10 μM” value is reported as “A (A ≦ 0.3)”.

For `Cc1cc(Nc2nc(C(O)c3ccc(F)cc3)nc3cc(C(C)(C)C)sc23)n[nH]1` (stereo not shown) [Example 27, (6-tert-butyl-4-(5-methyl-1H-pyrazol-3-ylamino)thieno[3,2-d]pyrimidin-2-yl)(4-fluorophenyl)methanol], in assay [1] (Homo sapiens), the negative-log IC50 (pIC50) was 6.30 to 7.00. Further, the negative-log Kd (pKd) was at least 9.00 on JAK2, 7.00 to 8.00 on JAK3 and below 7.00 on TYK2. Moreover, the “S-Score: S(10) at 10 μM” value in assay [2] was “A (A ≦ 0.3)”.

With `CC(C)(C)c1cc2nc(C(=O)c3ccc(F)cc3)nc(Nc3cc[nH]n3)c2s1` [Example 28, (4-(1H-pyrazol-3-ylamino)-6-tert-butylthieno[3,2-d]pyrimidin-2-yl)(4-fluorophenyl)methanone], in assay [1] (Homo sapiens), the pIC50 was 6.30 to 7.00. Besides, the negative-log Kd (pKd) at JAK2 is 8.00 to 9.00; at JAK3 it was below 7.00; at TYK2 it was below 7.00. For the same compound, the “S-Score: S(10) at 10 μM” value in assay [2] is listed as “A (A ≦ 0.3)”.

Take `Cc1cc(Nc2nc(C(F)(F)c3ccc(F)cc3)nc3cc(C(C)(C)C)sc23)n[nH]1` [Example 30, 6-tert-butyl-2-(difluoro(4-fluorophenyl)methyl)-N-(5-methyl-1H-pyrazol-3-yl)thieno[3,2-d]pyrimidin-4-amine]: the negative-log IC50 (pIC50) in assay [1] (Homo sapiens) is 6.30 to 7.00. In addition, the pKd on JAK2 was 8.00 to 9.00; at JAK3, 7.00 to 8.00; at TYK2 it was below 7.00. In addition, the “S-Score: S(10) at 10 μM” value in assay [2] is “A (A ≦ 0.3)”.

In the case of `CC(C)(C)c1cc2nc(C(F)(F)c3ccc(F)cc3)nc(Nc3cc[nH]n3)c2s1` [Example 31, 6-tert-butyl-2-(difluoro(4-fluorophenyl)methyl)-N-(1H-pyrazol-3-yl)thieno[3,2-d]pyrimidin-4-amine], the pIC50 in assay [1] (Homo sapiens) is 6.30 to 7.00. The negative logarithm of the Kd (pKd) is 8.00 to 9.00 at JAK2, below 7.00 at JAK3 and below 7.00 on TYK2. For the same compound, in assay [2], the “S-Score: S(10) at 10 μM” value is on record as “A (A ≦ 0.3)”.

With `Cc1cc(Nc2nc(C(F)(F)c3ccc(F)cn3)nc3ccsc23)n[nH]1` [Example 33, 2-(difluoro(5-fluoropyridin-2-yl)methyl)-N-(5-methyl-1H-pyrazol-3-yl)thieno[3,2-d]pyrimidin-4-amine], the pIC50 in assay [1] (Homo sapiens) was at least 7.00. Further, the values for the negative logarithm of the Kd (pKd) on JAK2, on JAK3 and at TYK2 were at least 9.00, at least 8.00 and at least 8.00, respectively. In addition, in assay [2], the “S-Score: S(10) at 10 μM” value is reported as “C (0.4 < C ≦ 0.5)”.

In the case of “(4-(1H-pyrazol-3-ylamino)-7-methylthieno[3,2-d]pyrimidin-2-yl)(4-fluorophenyl)methanone [Example 24]”, in assay [1], the negative logarithm of the IC50 (pIC50) is below 6.30. In addition, the results for the negative logarithm of the Kd (pKd) at JAK2, on JAK3 and on TYK2 were 8.00 to 9.00, below 7.00 and below 7.00, respectively. In addition, the “S-Score: S(10) at 10 μM” value in assay [2] is listed as “A (A ≦ 0.3)”.
